One experiment deals with CDK2/Cyclin E (Homo sapiens, UniProt P24941). As to the kind of experiment: CDK2/Cyclin E biochemical phosphorylation assay (Caliper mobility shift). As to conditions: apparent IC50; 1.0 mM ATP or ATP Km; 1.25 nM enzyme; 25° C.; read-out: CDK2/cyclin E1 IC50. In a few lines:
(§1)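 7.5 µM 5-FAM-QSPKKG-CONH2 peptide phosphorylated by CDK2/Cyclin E (1.25 nM) or GST-CDK1/Cyclin B1 (1.5 nM) at 1.0 mM ATP or ATP Km, in HEPES pH 7.5, MgCl2, Brij-35, DTT, 1% DMSO, 25 °C to 10–20% conversion. EDTA stop; Caliper mobility-shift readout; apparent IC50 from percent activity vs log concentration.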

A further experiment deals with T1, CDK1/Cyclin B1, GST-tag (Homo sapiens, UniProt P06493).
T1 construct: GST
T1 sequence (P06493 whole entry): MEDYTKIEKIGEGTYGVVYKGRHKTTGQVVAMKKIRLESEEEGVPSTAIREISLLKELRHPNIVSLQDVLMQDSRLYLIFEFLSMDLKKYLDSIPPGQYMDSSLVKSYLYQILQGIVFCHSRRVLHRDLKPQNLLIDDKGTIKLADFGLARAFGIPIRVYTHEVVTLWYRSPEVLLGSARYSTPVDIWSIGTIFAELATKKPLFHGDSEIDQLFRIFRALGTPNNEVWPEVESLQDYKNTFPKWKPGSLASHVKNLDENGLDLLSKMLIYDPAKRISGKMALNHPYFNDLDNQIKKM
T1 sequence (P14635 whole entry partner): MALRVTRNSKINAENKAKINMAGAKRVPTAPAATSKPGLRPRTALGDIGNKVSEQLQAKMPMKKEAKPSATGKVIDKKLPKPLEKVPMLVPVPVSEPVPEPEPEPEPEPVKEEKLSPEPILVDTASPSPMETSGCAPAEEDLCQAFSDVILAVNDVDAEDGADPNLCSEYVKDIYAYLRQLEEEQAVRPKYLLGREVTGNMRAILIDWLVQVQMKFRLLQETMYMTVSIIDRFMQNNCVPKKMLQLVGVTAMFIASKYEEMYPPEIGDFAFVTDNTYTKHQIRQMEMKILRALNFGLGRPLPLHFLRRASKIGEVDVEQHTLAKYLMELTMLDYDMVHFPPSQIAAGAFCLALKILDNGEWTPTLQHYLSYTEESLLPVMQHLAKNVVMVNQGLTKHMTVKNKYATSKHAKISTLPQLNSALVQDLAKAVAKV
Put plainly: CDK1/Cyclin B1 biochemical phosphorylation assay (Caliper mobility shift). As to conditions: apparent IC50; 1.0 mM ATP or ATP Km; 1.5 nM enzyme; 25° C. In a few lines: as §1

The source of these data is patent publication US11970498B2, “CDK2 inhibitors” (BLUEPRINT MEDICINES CORPORATION, priority 2021, dated 2024).

As for `C[C@H](c1cccc(F)n1)n1ncc2ncc(Nc3cc(OC(F)F)[nH]n3)nc21` (single isomer, unassigned) [Example 156, (S)-N-(5-(difluoromethoxy)-1H-pyrazol-3-yl)-1-(1-(6-fluoropyridin-2-yl)ethyl)-1H-pyrazolo[3,4-b]pyrazin-6-amine or (R)-N-(5-(difluoromethoxy)-1H-pyrazol-3-yl)-1-(1-(6-fluoropyridin-2-yl)ethyl)-1H-pyrazolo[3,4-b]pyrazin-6-amine], the IC50 at CDK2/Cyclin E was no more than 10 nM; on CDK1/Cyclin B1, GST-tag, no less than 500 nM.

Turning to `C[C@@H](O)c1nn([C@@H](C)C2CCOCC2)c2nc(Nc3cc(OC(F)F)[nH]n3)cnc12` (single isomer, unassigned) [Example 181, (R)-1-(6-((5-(difluoromethoxy)-1H-pyrazol-3-yl)amino)-1-((S)-1-(tetrahydro-2H-pyran-4-yl)ethyl)-1H-pyrazolo[3,4-b]pyrazin-3-yl)ethan-1-ol or (S)-1-(6-((5-(difluoromethoxy)-1H-pyrazol-3-yl)amino)-1-((S)-1-(tetrahydro-2H-pyran-4-yl)ethyl)-1H-pyrazolo[3,4-b]pyrazin-3-yl)ethan-1-ol], the IC50 on CDK2/Cyclin E is no more than 10 nM; on CDK1/Cyclin B1, GST-tag, no less than 500 nM.

`C[C@@H]([C@H]1CCOC1)n1ncc2ncc(Nc3cc(OC(F)F)[nH]n3)nc21` (single isomer, unassigned) [Example 12]: the IC50 on CDK2/Cyclin E was 30 to 100 nM; at CDK1/Cyclin B1, GST-tag it was no less than 500 nM.

Turning to `FC(F)Oc1cc(Nc2cnc3cnn(CC4CC5CCC(C4)O5)c3n2)n[nH]1` (stereo not shown) [Example 99, 1-((8-oxabicyclo[3.2.1]octan-3-yl)methyl)-N-(5-(difluoromethoxy)-1H-pyrazol-3-yl)-1H-pyrazolo[3,4-b]pyrazin-6-amine], the IC50 on CDK2/Cyclin E was no more than 10 nM; at CDK1/Cyclin B1, GST-tag, no less than 500 nM.

As to `O[C@@H]1C[C@H]1Cn1ncc2ncc(Nc3cc(OC(F)F)[nH]n3)nc21` (single isomer, unassigned) [Example 180, (1S,2R)-2-((6-((5-(difluoromethoxy)-1H-pyrazol-3-yl)amino)-1H-pyrazolo[3,4-b]pyrazin-1-yl)methyl)cyclopropan-1-ol or (1R,2S)-2-((6-((5-(difluoromethoxy)-1H-pyrazol-3-yl)amino)-1H-pyrazolo[3,4-b]pyrazin-1-yl)methyl)cyclopropan-1-ol], the IC50 on CDK2/Cyclin E is 20 to 30 nM; at CDK1/Cyclin B1, GST-tag it was no less than 500 nM.

Take `C[C@@H](C1COC1)n1ncc2ncc(Nc3cc(OC(F)F)[nH]n3)nc21` [Example 72, (S)-N-(5-(difluoromethoxy)-1H-pyrazol-3-yl)-1-(1-(oxetan-3-yl)ethyl)-1H-pyrazolo[3,4-b]pyrazin-6-amine]: the IC50 on CDK2/Cyclin E was no more than 10 nM; at CDK1/Cyclin B1, GST-tag, no less than 500 nM.

Consider `N#CC1(Cn2ncc3ncc(Nc4cc(OC(F)F)[nH]n4)nc32)CCOCC1` [Example 115, 4-((6-((5-(difluoromethoxy)-1H-pyrazol-3-yl)amino)-1H-pyrazolo[3,4-b]pyrazin-1-yl)methyl)tetrahydro-2H-pyran-4-carbonitrile], for which the IC50 on CDK2/Cyclin E was 30 to 100 nM; on CDK1/Cyclin B1, GST-tag it was no less than 500 nM.

As for `CC(C)(C)n1ncc2ncc(Nc3cc(OC(F)F)[nH]n3)nc21` [Example 79, 1-(tert-butyl)-N-(5-(difluoromethoxy)-1H-pyrazol-3-yl)-1H-pyrazolo[3,4-b]pyrazin-6-amine], the IC50 was 20 to 30 nM on CDK2/Cyclin E and no less than 500 nM at CDK1/Cyclin B1, GST-tag.

Turning to `O[C@@H]1C[C@H]1Cn1ncc2ncc(Nc3cc(OC(F)F)[nH]n3)nc21` (single isomer, unassigned) [Example 179, (1R,2S)-2-((6-((5-(difluoromethoxy)-1H-pyrazol-3-yl)amino)-1H-pyrazolo[3,4-b]pyrazin-1-yl)methyl)cyclopropan-1-ol or (1S,2R)-2-((6-((5-(difluoromethoxy)-1H-pyrazol-3-yl)amino)-1H-pyrazolo[3,4-b]pyrazin-1-yl)methyl)cyclopropan-1-ol], the IC50 was 30 to 100 nM at CDK2/Cyclin E and no less than 500 nM on CDK1/Cyclin B1, GST-tag.

Take `[2H]C([2H])(C)n1ncc2ncc(Nc3cc(OC(F)F)[nH]n3)nc21` [Example 225, N-(5-(difluoromethoxy)-1H-pyrazol-3-yl)-1-(ethyl-1,1-d2)-1H-pyrazolo[3,4-b]pyrazin-6-amine]: the IC50 was 30 to 100 nM on CDK2/Cyclin E and no less than 500 nM at CDK1/Cyclin B1, GST-tag.

With `Cn1cncc1Cn1ncc2ncc(Nc3cc(OC(F)F)[nH]n3)nc21` [Example 131, N-(5-(difluoromethoxy)-1H-pyrazol-3-yl)-1-((1-methyl-1H-imidazol-5-yl)methyl)-1H-pyrazolo[3,4-b]pyrazin-6-amine], the IC50 on CDK2/Cyclin E was 30 to 100 nM; on CDK1/Cyclin B1, GST-tag, no less than 500 nM.

As for `FC(F)Oc1cc(Nc2cnc3cnn(C[C@H]4CCOC4)c3n2)n[nH]1` (single isomer, unassigned) [Example 144, (S)-N-(5-(difluoromethoxy)-1H-pyrazol-3-yl)-1-((tetrahydrofuran-3-yl)methyl)-1H-pyrazolo[3,4-b]pyrazin-6-amine or (R)-N-(5-(difluoromethoxy)-1H-pyrazol-3-yl)-1-((tetrahydrofuran-3-yl)methyl)-1H-pyrazolo[3,4-b]pyrazin-6-amine], the IC50 is no more than 10 nM on CDK2/Cyclin E and less than 100 nM on CDK1/Cyclin B1, GST-tag.

With `O[C@H]1CC[C@@H](Cn2ncc3ncc(Nc4cc(OC(F)F)[nH]n4)nc32)CC1` (single isomer, unassigned) [Example 171, (1s,4s)-4-((6-((5-(difluoromethoxy)-1H-pyrazol-3-yl)amino)-1H-pyrazolo[3,4-b]pyrazin-1-yl)methyl)cyclohexan-1-ol or (1r,4r)-4-((6-((5-(difluoromethoxy)-1H-pyrazol-3-yl)amino)-1H-pyrazolo[3,4-b]pyrazin-1-yl)methyl)cyclohexan-1-ol], the IC50 is 10 to 20 nM at CDK2/Cyclin E and no less than 500 nM at CDK1/Cyclin B1, GST-tag.

Take `C[C@@H](c1cccnc1)n1nc(Cl)c2ncc(Nc3cc(OC(F)F)[nH]n3)nc21` [Example 61, (S)-3-chloro-N-(5-(difluoromethoxy)-1H-pyrazol-3-yl)-1-(1-(pyridin-3-yl)ethyl)-1H-pyrazolo[3,4-b]pyrazin-6-amine]: the IC50 at CDK2/Cyclin E is no more than 10 nM; on CDK1/Cyclin B1, GST-tag, no less than 500 nM.

As for `COc1cc(Nc2cnc3cnn(Cc4ccc(F)nc4)c3n2)n[nH]1` [Example 76, 1-((6-fluoropyridin-3-yl)methyl)-N-(5-methoxy-1H-pyrazol-3-yl)-1H-pyrazolo[3,4-b]pyrazin-6-amine], the IC50 was 20 to 30 nM at CDK2/Cyclin E and no less than 500 nM on CDK1/Cyclin B1, GST-tag.

For `FC(F)Oc1cc(Nc2cnc3cnn(Cc4cncs4)c3n2)n[nH]1` [Example 53, N-(5-(difluoromethoxy)-1H-pyrazol-3-yl)-1-(thiazol-5-ylmethyl)-1H-pyrazolo[3,4-b]pyrazin-6-amine], the IC50 was no more than 10 nM on CDK2/Cyclin E and no less than 500 nM on CDK1/Cyclin B1, GST-tag.

As for `Fc1ccc(Cn2ncc3ncc(Nc4cc(OC(F)F)[nH]n4)nc32)cn1` [Example 41, N-(5-(difluoromethoxy)-1H-pyrazol-3-yl)-1-((6-fluoropyridin-3-yl)methyl)-1H-pyrazolo[3,4-b]pyrazin-6-amine], the IC50 on CDK2/Cyclin E was no more than 10 nM; at CDK1/Cyclin B1, GST-tag it was no less than 500 nM.

With `O[C@H]1C[C@H](n2ncc3ncc(Nc4cc(OC(F)F)[nH]n4)nc32)C1` (single isomer, unassigned) [Example 145, (1r,3r)-3-(6-((5-(difluoromethoxy)-1H-pyrazol-3-yl)amino)-1H-pyrazolo[3,4-b]pyrazin-1-yl)cyclobutan-1-ol or (1s,3s)-3-(6-((5-(difluoromethoxy)-1H-pyrazol-3-yl)amino)-1H-pyrazolo[3,4-b]pyrazin-1-yl)cyclobutan-1-ol], the IC50 is greater than 100 nM on CDK2/Cyclin E and no less than 500 nM on CDK1/Cyclin B1, GST-tag.

As for `FC(F)Oc1cc(Nc2cnc3cnn([C@@H](c4cccnc4)C4CC4)c3n2)n[nH]1` (single isomer, unassigned) [Example 147, (R)-1-(cyclopropyl(pyridin-3-yl)methyl)-N-(5-(difluoromethoxy)-1H-pyrazol-3-yl)-1H-pyrazolo[3,4-b]pyrazin-6-amine or (S)-1-(cyclopropyl(pyridin-3-yl)methyl)-N-(5-(difluoromethoxy)-1H-pyrazol-3-yl)-1H-pyrazolo[3,4-b]pyrazin-6-amine], the IC50 is no more than 10 nM on CDK2/Cyclin E and no less than 500 nM at CDK1/Cyclin B1, GST-tag.

Take `C[C@@H](c1cncc(F)c1)n1ncc2ncc(Nc3cc(OC(F)F)[nH]n3)nc21` (single isomer, unassigned) [Example 153, (S)-N-(5-(difluoromethoxy)-1H-pyrazol-3-yl)-1-(1-(5-fluoropyridin-3-yl)ethyl)-1H-pyrazolo[3,4-b]pyrazin-6-amine or (R)-N-(5-(difluoromethoxy)-1H-pyrazol-3-yl)-1-(1-(5-fluoropyridin-3-yl)ethyl)-1H-pyrazolo[3,4-b]pyrazin-6-amine]: the IC50 was 10 to 20 nM on CDK2/Cyclin E and no less than 500 nM on CDK1/Cyclin B1, GST-tag.

As to `FC(F)Oc1cc(Nc2cnc3cnn(C[C@H]4CCCNC4)c3n2)n[nH]1` [Example 200, (S)—N-(5-(difluoromethoxy)-1H-pyrazol-3-yl)-1-(piperidin-3-ylmethyl)-1H-pyrazolo[3,4-b]pyrazin-6-amine], the IC50 was 20 to 30 nM on CDK2/Cyclin E and no less than 500 nM at CDK1/Cyclin B1, GST-tag.

With `FC(F)Oc1cc(Nc2cnc3cnn(Cc4cccc5[nH]ncc45)c3n2)n[nH]1` [Example 128, 1-((1H-indazol-4-yl)methyl)-N-(5-(difluoromethoxy)-1H-pyrazol-3-yl)-1H-pyrazolo[3,4-b]pyrazin-6-amine], the IC50 was 30 to 100 nM on CDK2/Cyclin E and no less than 500 nM on CDK1/Cyclin B1, GST-tag.

`C[C@@H](c1cccnc1F)n1nc(Cl)c2ncc(Nc3cc(OC(F)F)[nH]n3)nc21` [Example 17, (S)-3-chloro-N-(5-(difluoromethoxy)-1H-pyrazol-3-yl)-1-(1-(2-fluoropyridin-3-yl)ethyl)-1H-pyrazolo[3,4-b]pyrazin-6-amine]: the IC50 at CDK2/Cyclin E is no more than 10 nM; on CDK1/Cyclin B1, GST-tag, 100 to 500 nM.
